Earlier results in patent US20190151634A1, “TREATMENT OF EXCESSIVE MENSTRUAL BLOOD LOSS BY FEMININE SANITARY PRODUCTS MEDICATED WITH HEMOSTATIC AGENT” (ARSTAT, INC., priority 2011, published 2019).

Tests used:
[1] = mouthwash, compared to placebo
[2] = oral, 6 g/day (EMEA review)
[3] = locally administered, without detectable plasma drug levels
[4] = after administration of an oral tablet

NC[C@H]1CC[C@H](C(=O)O)CC1 [tranexamic acid]
plasma concentrations (after a mouth rinse): below 2 mcg/mL
saliva concentrations, maximum level (after a mouth rinse): above 200 mcg/mL
time saliva concentration remained at a therapeutic level (after a mouth rinse): more than two hours
drug in saliva samples [4]: not detected
mean drug plasma concentrations [4]: 7000 ng/mL
incidence of postoperative bleeding complications [1]: reduce the incidence of postoperative bleeding complications
risk of gastrointestinal adverse events [2]: increased

aprotinin
postoperative blood loss [3]: Reduction of the postoperative blood loss
